Assay results: PubChem BioAssay AID1259407 (Chemical Carcinogenesis Research Information System (CCRIS), 2018)
The source made the active and inactive calls. The rule behind the calls is not given here.

System: CCRIS mutagenicity, Ames/micronucleus/aberration tests
Assay: CCRIS mutagenicity studies
[1] = Test System: AMES SALMONELLA TYPHIMURIUM, Strain/Indicator: TA98, Metabolic Activation: HAMSTER, LIVER, S-9, AROCLOR 1254 (10%), Method: PREINCUBATION
[2] = Test System: AMES SALMONELLA TYPHIMURIUM, Strain/Indicator: TA98, Metabolic Activation: RAT, LIVER, S-9, AROCLOR 1254 (10%), Method: PREINCUBATION
[3] = Test System: AMES SALMONELLA TYPHIMURIUM, Strain/Indicator: TA100, Metabolic Activation: HAMSTER, LIVER, S-9, AROCLOR 1254 (10%), Method: PREINCUBATION
[4] = Test System: AMES SALMONELLA TYPHIMURIUM, Strain/Indicator: TA100, Metabolic Activation: NONE, Method: PREINCUBATION
[5] = Test System: AMES SALMONELLA TYPHIMURIUM, Strain/Indicator: TA100, Metabolic Activation: RAT, LIVER, S-9, AROCLOR 1254 (10%), Method: PREINCUBATION
[6] = Test System: AMES SALMONELLA TYPHIMURIUM, Strain/Indicator: TA1535, Metabolic Activation: HAMSTER, LIVER, S-9, AROCLOR 1254 (10%), Method: PREINCUBATION
[7] = Test System: AMES SALMONELLA TYPHIMURIUM, Strain/Indicator: TA1535, Metabolic Activation: NONE, Method: PREINCUBATION
[8] = Test System: AMES SALMONELLA TYPHIMURIUM, Strain/Indicator: TA1535, Metabolic Activation: RAT, LIVER, S-9, AROCLOR 1254 (10%), Method: PREINCUBATION
[9] = Test System: AMES SALMONELLA TYPHIMURIUM, Strain/Indicator: TA1537, Metabolic Activation: HAMSTER, LIVER, S-9, AROCLOR 1254 (10%), Method: PREINCUBATION
[10] = Test System: AMES SALMONELLA TYPHIMURIUM, Strain/Indicator: TA1537, Metabolic Activation: NONE, Method: PREINCUBATION
[11] = Test System: AMES SALMONELLA TYPHIMURIUM, Strain/Indicator: TA1537, Metabolic Activation: RAT, LIVER, S-9, AROCLOR 1254 (10%), Method: PREINCUBATION

In the case of `O=P(OCCCl)(OCCCl)OCCCl`, the mutagenic call (End Point: IN VITRO CHROMOSOMAL ABERRATIONS, Test System: CHINESE HAMSTER OVARY CELLS, Metabolic Activation: NONE) is reported as “inactive; negative”, the mutagenic call (End Point: IN VITRO CHROMOSOMAL ABERRATIONS, Test System: CHINESE HAMSTER OVARY CELLS, Metabolic Activation: RAT, LIVER, S-9, AROCLOR 1254) is reported as “inactive; negative” and the mutagenic call [1] is reported as “inactive; negative”. For the same compound, the mutagenic call (Test System: AMES SALMONELLA TYPHIMURIUM, Strain/Indicator: TA98, Metabolic Activation: NONE, Method: PREINCUBATION) was “inactive; negative”, the mutagenic call [2] was “inactive; negative” and the mutagenic call [3] was “inactive; negative”. The mutagenic call [4] was “inactive; negative”, the mutagenic call [5] was “inactive; negative” and the mutagenic call (Test System: AMES SALMONELLA TYPHIMURIUM, Strain/Indicator: TA100, Metabolic Activation: RAT, LIVER, S-9, PCB, Method: STANDARD PLATE) was “active; positive”. For the same compound, the mutagenic call [6] was “inactive; negative”, the mutagenic call [7] was “inactive; negative” and the mutagenic call [8] was “inactive; negative”. The mutagenic call (Test System: AMES SALMONELLA TYPHIMURIUM, Strain/Indicator: TA1535, Metabolic Activation: RAT, LIVER, S-9, PCB, Method: STANDARD PLATE) was “active; positive”, the mutagenic call [9] was “inactive; negative” and the mutagenic call [10] was “inactive; negative”. For the same compound, the mutagenic call [11] was “inactive; negative”.
With `CCC[C@@H]1C[C@@H](C(=O)N[C@@H]([C@H]2O[C@H](SC)[C@H](O)[C@@H](O)[C@H]2O)[C@@H](C)O)N(C)C1` the mutagenic call (End Point: AMES SALMONELLA TYPHIMURIUM, Test System: TA98, Metabolic Activation: NONE, Method: STANDARD PLATE) was “active; positive” and the mutagenic call (End Point: AMES SALMONELLA TYPHIMURIUM, Test System: TA100, Metabolic Activation: NONE, Method: STANDARD PLATE) was “active; positive”.
`[Ag][I]` was tested, and the mutagenic call (Test System: AMES SALMONELLA TYPHIMURIUM, Strain/Indicator: TA97, Metabolic Activation: NONE, Method: STANDARD PLATE) was “inactive; negative”, the mutagenic call (Test System: AMES SALMONELLA TYPHIMURIUM, Strain/Indicator: TA97, Metabolic Activation: RAT LIVER S-9, AROCLOR 1254, Method: STANDARD PLATE) was “active; positive” and the mutagenic call (Test System: AMES SALMONELLA TYPHIMURIUM, Strain/Indicator: TA98, Metabolic Activation: NONE, Method: STANDARD PLATE) was “inactive; negative”. The mutagenic call (Test System: AMES SALMONELLA TYPHIMURIUM, Strain/Indicator: TA98, Metabolic Activation: RAT LIVER S-9, AROCLOR 1254, Method: STANDARD PLATE) was “inactive; negative”, the mutagenic call (Test System: AMES SALMONELLA TYPHIMURIUM, Strain/Indicator: TA102, Metabolic Activation: NONE, Method: STANDARD PLATE) was “active; positive” and the mutagenic call (Test System: AMES SALMONELLA TYPHIMURIUM, Strain/Indicator: TA102, Metabolic Activation: RAT LIVER S-9, AROCLOR 1254, Method: STANDARD PLATE) was “inactive; negative”. The mutagenic call (Test System: AMES SALMONELLA TYPHIMURIUM, Strain/Indicator: TA1535, Metabolic Activation: NONE, Method: STANDARD PLATE) was “inactive; negative” and the mutagenic call (Test System: AMES SALMONELLA TYPHIMURIUM, Strain/Indicator: TA1535, Metabolic Activation: RAT LIVER S-9, AROCLOR 1254, Method: STANDARD PLATE) was “inactive; negative”.
With `CC(=O)OCN(C)N=O` the mutagenic call (Test System: AMES SALMONELLA TYPHIMURIUM, Strain/Indicator: TA100, Metabolic Activation: HAMSTER, LIVER, CYTOSOL, Method: PREINCUBATION) was “active; positive”, the mutagenic call (Test System: AMES SALMONELLA TYPHIMURIUM, Strain/Indicator: TA100, Metabolic Activation: HAMSTER, LIVER, CYTOSOL, Method: STANDARD PLATE) was “active; positive” and the mutagenic call (Test System: AMES SALMONELLA TYPHIMURIUM, Strain/Indicator: TA104, Metabolic Activation: HAMSTER, LIVER, CYTOSOL, Method: PREINCUBATION) was “active; positive”. The mutagenic call (Test System: AMES SALMONELLA TYPHIMURIUM, Strain/Indicator: TA104, Metabolic Activation: HAMSTER, LIVER, CYTOSOL, Method: STANDARD PLATE) was “active; positive”, the mutagenic call [7] was “active; positive” and the mutagenic call (Test System: UDS RAT UROTHELIAL CELLS, Strain/Indicator: THY INCORP, Metabolic Activation: NONE) was “active; positive”.
`O=[N+]([O-])CCO` was tested, and the mutagenic call (Test System: AMES SALMONELLA TYPHIMURIUM, Strain/Indicator: TA97, Metabolic Activation: HAMSTER, LIVER, S-9, AROCLOR 1254 (5 OR 30%), Method: PREINCUBATION) was “inactive; negative”, the mutagenic call (Test System: AMES SALMONELLA TYPHIMURIUM, Strain/Indicator: TA97, Metabolic Activation: HAMSTER, LIVER, S-9, AROCLOR 1254 (10%), Method: PREINCUBATION) was “inactive; negative” and the mutagenic call (Test System: AMES SALMONELLA TYPHIMURIUM, Strain/Indicator: TA97, Metabolic Activation: NONE, Method: PREINCUBATION) was “inactive; negative”. The mutagenic call (Test System: AMES SALMONELLA TYPHIMURIUM, Strain/Indicator: TA97, Metabolic Activation: RAT, LIVER, S-9, AROCLOR 1254 (5 OR 30%), Method: PREINCUBATION) was “inactive; negative”, the mutagenic call (Test System: AMES SALMONELLA TYPHIMURIUM, Strain/Indicator: TA97, Metabolic Activation: RAT, LIVER, S-9, AROCLOR 1254 (10%), Method: PREINCUBATION) was “inactive; negative” and the mutagenic call [1] was “inactive; negative”. For the same compound, the mutagenic call [2] was “inactive; negative”, the mutagenic call [3] was “inactive; negative” and the mutagenic call (Test System: AMES SALMONELLA TYPHIMURIUM, Strain/Indicator: TA100, Metabolic Activation: HAMSTER, LIVER, S-9, AROCLOR 1254 (30%), Method: PREINCUBATION) was “inactive; negative”. For the same compound, the mutagenic call [4] was “inactive; negative”, the mutagenic call [5] was “inactive; negative” and the mutagenic call (Test System: AMES SALMONELLA TYPHIMURIUM, Strain/Indicator: TA100, Metabolic Activation: RAT, LIVER, S-9, AROCLOR 1254 (30%), Method: PREINCUBATION) was “inactive; negative”. For the same compound, the mutagenic call [6] was “inactive; negative”, the mutagenic call (Test System: AMES SALMONELLA TYPHIMURIUM, Strain/Indicator: TA1535, Metabolic Activation: HAMSTER, LIVER, S-9, AROCLOR 1254 (30%), Method: PREINCUBATION) was “inactive; negative” and the mutagenic call [7] was “inactive; negative”. For the same compound, the mutagenic call [8] was “inactive; negative”, the mutagenic call (Test System: AMES SALMONELLA TYPHIMURIUM, Strain/Indicator: TA1535, Metabolic Activation: RAT, LIVER, S-9, AROCLOR 1254 (30%), Method: PREINCUBATION) was “inactive; negative” and the mutagenic call [9] was “inactive; negative”. For the same compound, the mutagenic call [10] was “inactive; negative”, the mutagenic call [11] was “inactive; negative” and the mutagenic call (Test System: AMES SALMONELLA TYPHIMURIUM, Strain/Indicator: TA1538, Metabolic Activation: HAMSTER, LIVER, S-9, AROCLOR 1254 (30%), Method: PREINCUBATION) was “active; positive”. The mutagenic call (Test System: AMES SALMONELLA TYPHIMURIUM, Strain/Indicator: TA1538, Metabolic Activation: NONE, Method: PREINCUBATION) was “active; positive” and the mutagenic call (Test System: AMES SALMONELLA TYPHIMURIUM, Strain/Indicator: TA1538, Metabolic Activation: RAT, LIVER, S-9, AROCLOR 1254 (30%), Method: PREINCUBATION) was “active; positive”.
`CC(C)=CCC[C@@](C)(O)[C@H]1CCC=CC1=O` was tested, and the mutagenic call (Test System: AMES SALMONELLA TYPHIMURIUM, Strain/Indicator: TM677, Metabolic Activation: NONE, Method: STANDARD PLATE) was “active; positive” and the mutagenic call (Test System: AMES SALMONELLA TYPHIMURIUM, Strain/Indicator: TM677, Metabolic Activation: RAT, LIVER, S-9, AROCLOR 1254, Method: STANDARD PLATE) was “active; positive”.
In the case of `Oc1ccc(/C=C/c2cc(O)cc(O)c2)cc1`, the mutagenic call (End Point: CHROMOSOMAL ABERRATIONS, Test System: CHINESE HAMSTER LUNG CELLS, Metabolic Activation: NONE) is reported as “active; positive (structural and ploidy changes)”, the mutagenic call (Test System: Ames Salmonella typhimurium, Strain/Indicator: TA102, Metabolic Activation: None, Method: Preincubation) is reported as “inactive; negative” and the mutagenic call (Test System: Ames Salmonella typhimurium, Strain/Indicator: TA102, Metabolic Activation: Rat, Liver, S-9, Aroclor 1254 in 0.154 M KCl, Method: Preincubation) is reported as “inactive; negative”.
